Assay results from article PMC11167338, “Exploring the impact of trifluoromethyl (–CF3) functional group on the anti-cancer activity of isoxazole-based molecules: design, synthesis, biological evaluation and molecular docking analysis” (RSC Advances, 2024).

What was measured:
[1] = system: 4T1; assay: MTT anti-proliferative assay on 4T1; type: cell-based, mouse; conditions: for IC50: Mus musculus, 4T1, MTT, 48 hours treatment, mean ± SD (n = 2)
Procedure: (§1) All synthesized molecules were tested for their anticancer activity using the MTT assay protocol against the murine mammary carcinoma cell line (4T1), the human breast cancer (MCF-7), and the prostatic small cell carcinoma (PC-3). These compounds were then assessed for their IC50 determination at various concentrations. According to this finding, all synthesized compounds have the ability to inhibit the proliferation of a variety of cancer cell lines. […] It is more biased for MCF-7 cells over other cancer cells tested. Further, we contemplated conducting additional research to assess their anti-cancer effectiveness and mechanism (Fig. 3).
(§2) The mouse triple-negative breast cancer cell line (4T1), a human luminal A breast cancer cell line (MCF-7), a human prostate cancer cell line (PC-3), and a normal human embryonic kidney cell line (HEK-293) were procured from the National Center for Cell Science (NCCS, Pune, India). Dulbecco's Modified Eagle Medium (DMEM) (Himedia Laboratories Pvt Ltd, Mumbai, India) was used to cultivate MCF-7, 4T1, PC-3, and HEK-293 cells. All the mentioned cell lines were cultured in Dulbecco's Modified Eagle Medium (DMEM) supplemented with 10% heat-inactivated fetal bovine serum (Himedia Laboratories Pvt Ltd, Mumbai, India) and 1% antibiotic (Pen strep: A001), Himedia Laboratories Pvt Ltd, Mumbai, India. Cells were grown in a humidified environment with 5% CO2 at 37 °C. The experiment was performed using the yellow dye MTT [3-(4,5-dimethylthiazol-2-yl)-2, 5-diphenyltetrazolium bromide].
(§3) The MTT assay protocol was used to determine the IC50 values of the final compounds against different types of cancer cell lines and their selectivity over normal human cell lines. Dilutions of various concentrations were made from the compounds' DMSO stock solutions in the appropriate media. With a control solution of less than 1% DMSO in the appropriate media, dilutions from 200 μM to 0.781 μM concentrations were prepared using the serial dilution method. Cells were subcultured in their respective complete media according to the ATCC protocol before being seeded on a sterile 96-well plate with around 100 μL per well and a cell density of about 1 × 10^4 cells per well and incubated overnight. The medium was aspirated the following day, and adherent cells were treated with the respective concentrations 200 μM to 0.781 μM. The cells were then cultured for 48 hours in presence of compounds in the growth medium. The medium was aspirated post-treatment, and 100 μL of a 5 mg mL^−1 MTT solution in phenol red-free media was added. This mixture was then incubated for around 3 hours to check for the production of formazan crystals. The MTT solution was withdrawn, and 150 μL of DMSO was added to the wells to dissolve the generated crystals. The absorbance was measured at 570 nm and 650 nm. The percent cell viability was calculated for the IC50 values using GraphPad Prism™ version 8.0.1, and the results were shown as a dose–response curve.

[2] = system: MCF-7; assay: MTT anti-proliferative assay on MCF-7; type: cell-based, human; conditions: for IC50: MTT, 48 hours treatment, mean ± SD (n = 2)
Procedure: as §1, §2, §3

[3] = system: HEK-293; assay: MTT cytotoxicity on normal HEK-293 cells; type: cell-based; conditions: Homo sapiens, HEK293, normal cell line, 48 hours treatment, mean ± SD (n = 2)
Description: We also investigated their in vitro cytotoxicity against a normal human embryonic kidney (HEK-293) cell line to determine their IC50.
as §2, §3

[4] = system: PC-3; assay: MTT anti-proliferative assay on PC-3; type: cell-based, human; conditions: for IC50: Homo sapiens, PC-3, MTT, 48 hours treatment, mean ± SD (n = 2)
Procedure: as §1, §2, §3

[5] = system: MCF-7 cells; assay: Cell cycle analysis (PI, flow cytometry); type: cell-based, human; conditions: MCF-7, 48 hours, at IC50 concentration
Procedure: In addition to the apoptosis assay, the cell cycle progression of MCF-7 cells was also investigated using the compound 2g. The cell population at different cell cycle phases was assessed using flow cytometry. […] These findings highlight that the lead compound 2g specifically impacts cell cycle regulation in the early phase compared to control and standard compound-treated cells (Fig. 6).
Flow cytometry was used to study the cell cycle of compound 2g and BG-45 using the BDAria™ III, a BD biosciences equipment, and the data was processed using Flow Jo software. For this objective, 5.0 × 10^4 MCF-7 cells were seeded onto 12 well plates and incubated overnight. The media was aspirated the other day, and the treatment was continued for another 48 hours after adding the required concentrations of compound 2g and BG-45 to the aspirated media. Following the treatment, the sample wells were rinsed with ice-cold PBS, trypsinized, and collected as a cell pellet. After two ice-cold PBS washes, the pellet was fixed with a dropwise addition of 70% ice-cold ethanol, which was then gently vortexed to create a single-cell suspension. Overnight, the fixed cells were stored at −20 °C. The samples were then centrifuged, and the resulting cell pellet was resuspended in 500 μL of the staining solution made from 20% w/v RNase, 2% w/v PI, and roughly 0.1% v/v Triton X 100 solution in PBS. The dissolved samples were examined using flow cytometry in the BDAria™ III, BD Biosciences, after being incubated for 30 min at room temperature in the dark.

[6] = system: MCF-7 cells; assay: Nuclear staining assay (DAPI and AO); type: cell-based, human; conditions: MCF-7, IC50, 48 hours, compared to control and BG-45
Procedure: A nuclear staining assay was done using DAPI and AO as staining dyes to evaluate the phenomena of apoptosis in cancer cells under a laser scanning confocal microscope (LSCM). […] The fluorescence pattern in AO staining changed from green (normal cellular DNA) to orange (nicked cellular DNA).
To measure the degree of cancer cell disintegration, a nuclear staining experiment was performed in MCF-7 cells using the lead compound 2g and the reference compound BG-45. […] The 12-well plate was incubated for 48 hours after treatment. The cells were fixed with 4% paraformaldehyde and then stained with DAPI and acridine orange. The degree of nuclear staining was examined using a Laser Scanning Confocal Microscope (LSCM) DMI8 (Leica Microsystems, Germany) at 63× magnification. Image J was used to calculate the percentage apoptosis. One-way ANOVA was used to determine significance, and the graph was plotted in GraphPad Prism™ version 8.0.1.

[7] = system: MCF-7 cells; assay: Annexin-V/FITC-PI apoptosis assay (flow cytometry); type: cell-based, human; conditions: MCF-7, 48 h, at in vitro IC50
Procedure: Several studies have reported that anticancer drug molecules employ their cytotoxicity induced cell death via apoptotic pathways. […] These findings imply that the programmed cell death mechanism generated by the lead compound 2g causes considerable apoptosis in cancer cells.
In MCF-7 cells, an apoptosis assay was done using a TACs/Annexin V kit from Biolegend, USA. MCF-7 cells were seeded with a density of 5.0 × 10^4 cells per well in a flat-bottomed 12-well plate and allowed overnight for attachment. Following media aspiration, 48 hours of treatment with compound 2g and BG-45 at their in vitro IC50 values in MCF-7 cells were performed in triplicate. The cells were then trypsinized after being rinsed twice with ice-cold PBS. The trypsinized cells were then collected, centrifuged, and the obtained cell pellet was washed with ice-cold PBS before being resuspended in 100 μL of freshly prepared Annexin V reagent, which included 10 μL of 10× binding buffer, 1 μL of FITC, 10 μL of PI, and made up to 100 μL with double distilled water. Following a 30 minutes dark incubation period, these samples were diluted to 500 μL using 400 μL of 1× binding buffer. Following incubation, the samples were examined using flow cytometry (BDAria™ III, BD biosciences).

[8] = system: MCF-7 cells; assay: Intracellular ROS generation (DCFH-DA); type: cell-based, human
Description: This can result from the increased metabolic demands of rapidly dividing cancer cells and mitochondrial dysfunction. Elevated ROS levels can also damage DNA, contributing to genomic instability and the development of genetic mutations that drive cancer progression. Chemotherapy drugs, for example, can generate ROS as a byproduct of their mechanism of action, causing increase DNA damage and cell death in cancer cells. As a result, we investigated whether the compound 2g could cause ROS production within cancer cells.
The generation of reactive oxygen species in MCF-7 cells was investigated using the 2-7-dichlorodihydroflourescein diacetate (DCFH-DA) assay. The non-fluorescent DCFH-DA enters the cells, where cellular esterase cleaves off the acetyl groups to produce DCFH. ROS transform the molecule from DCFH to DCF, which produces green light. […] Following incubation, old medium was removed, and cells were treated with 10 μM DCFH-DA (S0033-Beyotime) in accordance with the recommended technique for 10 min at 37 °C in complete darkness. The intensity of fluorescence was then measured with a Laser Scanning Confocal Microscope (LSCM) DMI8 (Leica Microsystems, Germany) at 63× magnification at 485 nm and 535 nm for excitation and emission wavelengths. […] In the meantime, the increase in fluorescence intensity was determined in comparison to the control. Image J was used to calculate the relative fluorescence intensity (%). One-way ANOVA was used to determine significance, and the graph was created in GraphPad Prism™ version 8.0.1.

Row | SMILES | IC50 [1] [µM] | IC50 ([2]; Homo sapiens, MCF7, 48 h) [µM] | IC50 [2] [µM] | IC50 [4] [µM] | IC50 [3] [µM] | selectivity for other cancer cell lines over HEK-293 ([1]; first value, fits 4T1 by ratio of Table 1 IC50) [fold] | cell population in G0/G1 phase [5] [%] | cell population in G2/M phase [5] [%] | cell population in S phase [5] [%] | nuclear morphology by DAPI and AO staining [6] | total apoptotic percentage (Q2 and Q4) [7] [%] | times more active than non-trifluoromethylated analogue 14 ([2]; MCF-7 IC50 compared) [times] | selectivity for MCF-7 cells over HEK-293 ([2]; ratio of IC50 values) [fold] | selectivity for other cancer cell lines over HEK-293 ([4]; second value, fits PC-3 by ratio of Table 1 IC50) [fold] | Fluorescence intensity (DCFH-DA, ImageJ) ([8]; MCF-7, 48 h, IC50 dose) | relative fluorescence intensity compared to the control ([8]; MCF-7, IC50 dose)
1 | FC(F)(F)c1c(-c2cccs2)noc1/C=C/c1cccs1 [Compound 4, (E)-3-(thiophen-2-yl)-5-(2-(thiophen-2-yl)vinyl)-4-(trifluoromethyl)isoxazole] | 44.36 ± 0.2 | 13.7 | 13.71 ± 0.13 | 17.99 ± 0.13 | 122 ± 0.16 | – | – | – | – | – | – | – | – | – | – | –
2 | FC(F)(F)c1c(-c2cccs2)noc1-c1c[nH]cc1-c1cccs1 [Compound 5, 3-(thiophen-2-yl)-5-(4-(thiophen-2-yl)-1H-pyrrol-3-yl)-4-(trifluoromethyl)isoxazole] | 14.96 ± 0.13 | 3.09 | 3.09 ± 0.11 | 9.56 ± 0.18 | 84.86 ± 0.19 | – | – | – | – | – | – | – | – | – | – | –
3 | c1ccc(-c2cc(-c3ccccc3)on2)cc1 [Compound 7, 3,5-diphenylisoxazole] | 41.58 ± 0.21 | 13 | 13.03 ± 0.13 | 17.42 ± 0.17 | 118.7 ± 0.21 | – | – | – | – | – | – | – | – | – | – | –
4 | c1ccc(-c2cc(-c3cccs3)on2)cc1 [Compound 9, 3-phenyl-5-(thiophen-2-yl)isoxazole] | 36.24 ± 0.2 | 10 | 9.99 ± 0.1 | 14.5 ± 0.17 | 109.3 ± 0.19 | – | – | – | – | – | – | – | – | – | – | –
5 | COc1ccc(-c2cc(-c3cccs3)on2)cc1OC [Compound 14, 3-(3,4-dimethoxyphenyl)-5-(thiophen-2-yl)isoxazole, reference compound] | 48.39 ± 0.19 | 19.72 ± 0.16 | – | 30.21 ± 0.22 | 131.5 ± 0.13 | – | – | – | – | – | – | – | – | – | – | –

More lines, main results first:

Row | IC50 [1] [µM] | IC50 ([2]; Homo sapiens, MCF7, 48 h) [µM] | IC50 [2] [µM] | IC50 [4] [µM] | SMILES | IC50 [3] [µM] | selectivity for other cancer cell lines over HEK-293 ([1]; first value, fits 4T1 by ratio of Table 1 IC50) [fold] | cell population in G0/G1 phase [5] [%] | cell population in G2/M phase [5] [%] | cell population in S phase [5] [%] | nuclear morphology by DAPI and AO staining [6] | total apoptotic percentage (Q2 and Q4) [7] [%] | times more active than non-trifluoromethylated analogue 14 ([2]; MCF-7 IC50 compared) [times] | selectivity for MCF-7 cells over HEK-293 ([2]; ratio of IC50 values) [fold] | selectivity for other cancer cell lines over HEK-293 ([4]; second value, fits PC-3 by ratio of Table 1 IC50) [fold] | Fluorescence intensity (DCFH-DA, ImageJ) ([8]; MCF-7, 48 h, IC50 dose) | relative fluorescence intensity compared to the control ([8]; MCF-7, IC50 dose)
6 | 18.12 ± 0.15 | 5.32 | 5.32 ± 0.19 | 10.3 ± 0.15 | FC(F)(F)c1c(-c2ccco2)noc1-c1cccs1 [Compound 2f] | 86.98 ± 0.23 | – | – | – | – | – | – | – | – | – | – | –
7 | 8.75 ± 0.09 | 2.64 | 2.63 ± 0.15 | 7.16 ± 0.18 | COc1ccc(-c2noc(-c3cccs3)c2C(F)(F)F)cc1OC [Compound 2g, 3-(3,4-dimethoxyphenyl)-5-(thiophen-2-yl)-4-(trifluoromethyl)isoxazole] | 81.2 ± 0.17 | 9.2 | 68.6 | 31.5 | 1.11 | notable variation in cell shape and morphology | 55.3 ± 0.9 | ~8 | 30.8 | 11.3 | 31.63 | considerable increase
